Source: paper PMC11350868, “A Novel Bacitracin-like Peptide from Mangrove-Isolated Bacillus paralicheniformis NNS4-3 against MRSA and Its Genomic Insights” (Antibiotics, 2024)
Like-named read-outs stand apart in the source and are kept apart here.

System: Trypsin
Conditions: Trypsin 1 mg/mL, AMP 10 µg/mL, agar well diffusion vs MRSA strain 2468, relative to non-treated sample, mean ± SD, triplicate
Method: The AMP was dissolved in sterile purified water and adjusted to a final concentration of 10 µg/mL. The sensitivity of the AMP to temperatures of 60, 80, and 100 °C as well as autoclaving at 121 °C for 15 and 30 min was evaluated. The sensitivity of the AMP to proteolytic enzymes with different digesting characteristics was studied by incubating with a concentration of 1 mg/mL of proteinase K, trypsin, and α-chymotrypsin (Sigma-Aldrich, Warren, MI, USA). Surfactant compatibility of the AMP was examined by exposing the sample to 1% SDS and 1% Triton X-100 (AppliChem GmbH, Darmstadt, Germany). The propensity of the AMP for acid and base hydrolysis was examined by adjusting the pH of the solution to 1.2, 4.5, 6.8, and 7.4. After incubation, the pH of the AMP solution was neutralized to 7.4 before being assessed for antimicrobial activity. Following all treatments, the antibacterial assay using agar well diffusion against the MRSA strain 2468 was conducted in triplicate. The stability profiles are presented as the percentage of the activity relative to the untreated conditions (mean ± SD) and statistical significance was determined by the Student’s t-test at a p-value < 0.05.

## CC(C)CC(NC(=O)C(N)CCCCN)C(=O)NC(CC(C)C)C(=O)NC(CCCCN)C(=O)NC(CC(=O)O)C(=O)NC(CC(C)C)C(=O)NC(Cc1ccccc1)C(=O)NC(Cc1c[nH]cn1)C(=O)NC(CC(=O)O)C(=O)NC(CC(N)=O)C(=O)O (single isomer, unassigned) [NNS4-3 AMP]
1 h
  % Residual Activity: 95.57 ± 4.01%
6 h
  % Residual Activity: 95.66 ± 2.62%
12 h
  % Residual Activity: 93.81 ± 3.31%
